PubChem BioAssay AID179 (DTP/NCI, 2004)
The source made the active and inactive calls.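 How the source made its calls: active means compounds giving half or more protection of infected cells from virus-caused growth loss, again on retest; inactive means the rest.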 Where a SMILES comes first, the peptide text is derived from it. The star is where a group is joined. Boc = CC(C)(C)OC(=O)*; OBn = c1ccc(CO*)cc1

Tested on: CEM cells HIV-1 protection, formazan growth assay
Assay: NCI AIDS Antiviral Assay
Settings: for IC50: measured here: growth of uninfected CEM cells
Procedure, shortened: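 Soluble formazan readout of cell growth; CEM cells ± HIV-1; 5 drug concs. ≥50% protection → retest; ≥50% again = moderately active; reproducible 100% = confirmed active.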

Compound	EC50	IC50	outcome
[N-]=[N+]=NCC(O)Cn1cnc2c(NC(=O)c3ccccc3)ncnc21 (stereo not drawn)	> 741 µM	427 µM	
CCN1CCCCC(=N\O)/C(=N/O)CCCC1	> 741 µM	> 741 µM	
CCOC(=O)/C(C#N)=C\c1ccc([N+](=O)[O-])o1	> 1050 µM	> 1050 µM	
O=C(NCCN(CCNC(=O)c1cccc(=O)n1O)CCN(CCNC(=O)c1cccc(=O)n1O)CCNC(=O)c1cccc(=O)n1O)c1cccc(=O)n1O	> 200 µM	> 200 µM	
O=C1C[C@@H](Sc2ccccc2)C2(OCCO2)C2ON3CCCC[C@H]3[C@H]12 (stereo partly drawn)	> 200 µM	1.82 µM	
O=C(NCCCCNCCCNC(=O)c1ccccc1)c1ccccc1	> 200 µM	> 200 µM	
Nc1cccc2cc(Cl)cnc12	> 200 µM	> 200 µM	
O=C(/C=C/c1ccc(O)c(F)c1)CC(=O)/C=C/c1ccc(O)c(F)c1	> 200 µM	12.6 µM	
Nc1ccn(C2OC(COP(=O)(O)O)C(O)C2O)c(=O)n1 (stereo not drawn) (tested in a mixture with another compound)	> 200 µM	40.7 µM	
CCN(CC)P1CCP(c2ccccc2)CC1 (stereo not drawn)	> 37.2 µM	> 37.2 µM	
C[n+]1c2cc(N)ccc2cc2ccc(N)cc21 (tested in a mixture with another compound)	> 200 µM	0.316 µM	
O=c1n(-c2ccccc2)c(=O)n2n1C1CCC2CC1	> 200 µM	> 200 µM	
CC(Cl)CN1COc2c3c(c4ccccc4c2C1)CN(CC(C)Cl)CO3 (stereo not drawn)	> 91.2 µM	27.5 µM	
CCN(CC)CCn1nc(N)c2nc3cc(Cl)ccc3nc21	> 100 µM	51.3 µM	
CCOC(=O)n1[nH]c(=O)n(-c2ccccc2)c1=O	> 200 µM	> 200 µM	
CC(=O)Nc1cc(N=Nc2ccc(N=Nc3ccc(NC(=O)c4ccc(N)cc4)cc3C)cc2C)c(S(=O)(=O)O)cc1N=Nc1ccc(C(=O)O)cc1	> 123 µM	115 µM	
C[N+](C)(C)CC(=O)N/N=C(\Cc1nc2ccc([N+](=O)[O-])cc2[nH]c1=O)C(=O)Nc1nc2ccc([N+](=O)[O-])cc2s1	> 42.7 µM	> 42.7 µM	
CCOC(=O)c1nc2ccccc2nc1Oc1ccc(C(=O)OC)cc1	> 200 µM	> 200 µM	
CCOC(=O)C(NC(=O)CC)(Nc1ccc(S(=O)(=O)Nc2ncccn2)cc1)C(F)(F)F (stereo not drawn)	> 200 µM	> 200 µM	
N=C1N(/N=C/c2ccccn2)C(=Nc2ccccc2)C(=S)N1c1ccccc1	> 200 µM	5.13 µM	

Compound	EC50	IC50	outcome
CC(C)CC(NC(=O)C(Cc1ccccc1)NC(=O)C(Cc1ccccc1)NC(=O)OC(C)(C)C)C(=O)OCc1ccccc1 (stereo not drawn) (Boc-Phe-Phe-Leu-OBn; configuration not given here)	> 200 µM	> 200 µM	
Cc1cc(NS(=O)(=O)c2ccc(NC(=O)c3cccc4c(=O)c5ccccc5[nH]c34)cc2)no1			inactive
O=C(O)C(Cc1ccccc1)N1C(=O)N/C(=C\c2ccc(F)cc2)C1=O (stereo not drawn)			inactive
CC1=CC2O[C@@H]3C[C@@H](O)[C@](C)(C2(C)CC1=O)C31CO1 (stereo partly drawn)	> 200 µM	3.72 µM	
COC(=O)[C@H](Cc1cn(C(c2ccccc2)(c2ccccc2)c2ccccc2)cn1)NCc1cc(N(C)C)cc(CN[C@@H](Cc2cn(C(c3ccccc3)(c3ccccc3)c3ccccc3)cn2)C(=O)OC)n1	> 100 µM	5.89 µM	
CCOC1OC2O[C@]3(C)CCC4C(C)CCC([C@H]1C)C24OO3 (stereo partly drawn)			inactive
Cc1ccc(C(=O)/C=C/c2ccc(Cl)c(Cl)c2)cc1	> 17.8 µM	> 17.8 µM	
COc1ccc(N=[N+]([O-])c2ccc(OC)cc2)cc1	> 200 µM	> 200 µM	
CC(=O)C1N=Nc2nc3c(=O)n(C)c(=O)n(C)c3n2C1=O (stereo not drawn)	> 200 µM	> 200 µM	
CC1(CO)C(O)CCC2(C)C1C(O)CC1CC3CC12CCC3(O)CO (stereo not drawn)	> 708 µM	138 µM	
O=C(CCc1ccc(O)cc1)NCCc1cccc(O)c1	43.7 µM	> 100 µM	
O=C(CSc1c2ccccc2nc2ccccc12)Nc1ccccc1-c1ccccc1NC(=O)CSc1c2ccccc2nc2ccccc12	> 1.91 µM	> 1.91 µM	
O=C1c2ccccc2-c2nnc3c(c21)-c1ccccc1C3	> 200 µM	93.3 µM	
O=C1C2C3CC4C5C3C1C5C1(SCCS1)C42 (stereo not drawn)			inactive
C=CCC1(C)CCCN(Cc2ccccc2)C1=O (stereo not drawn)	> 200 µM	105 µM	
CC1(C)C2CCC1(C)C(O)(c1ccccc1)C2=O (stereo not drawn)	> 91.2 µM	> 91.2 µM	
CCCn1c(SC)nc(COC(=O)NC)c1COC(=O)NC	> 200 µM	> 200 µM	
O=c1ccccc2cccc(O)c12			inactive
COc1ccc(CN2COc3c(cc(C)c4cccnc34)C2)cc1	> 200 µM	1.02 µM	
